{
  "source": "patent US20220411478A1",
  "about": "“CD70 TARGETED CHIMERIC ANTIGEN RECEPTOR (CAR) T CELLS AND USES THEREOF” (priority 2019, published 2022)",
  "key": {"[1]": {"system": "CD70 CAR-T cells", "test": "Plate bound antigen activation assay after AZA incubation", "assay_type": "cell-based, human", "conditions": "100 μM AZA (supratherapeutic), 24 hours, washed, plate-bound CD70 overnight", "experimental": "After washing in PBS, trD27 or CAR T cells were added for 12 hours followed by flow cytometric staining for CD69."}, "[2]": {"system": "CD70 CAR-T cells", "test": "T-cell subset and activation/exhaustion markers under AZA, co-culture with Molm13", "conditions": "highest concentrations of AZA"}, "[3]": {"system": "solid tumor cell lines as well as primary AML blasts", "conditions": "hypomethylation of the CD70 promoter; cited from earlier work"}, "[4]": {"system": "Molm13", "test": "Aggressive Molm13 AML xenograft, azacitidine with CD70 CAR-T cells", "procedure": "For IHC, murine femurs were washed in PBS and then incubated overnight in 4% paraformaldehyde (PF Thermo-Fisher Scientific AAJ19943K2), followed by an overnight incubation in Cal-ex decalcifier (Fisher Scientific, CS510-1D) and then storage in 70% ethanol until staining. Antibody clones for IHC included the following: CD3 (2GV6, Roche) and CD45 (D9M81, Cell Signaling Technology).\nNOD-SCID-γ chain−/− (NSG) (Jackson Laboratories) mice were engrafted with Molm13 cell lines as described for the individual experiments. Mice were maintained at the MGH Center for Cancer Research and all care and conducted experiments were carried out using protocols approved by the Massachusetts General Hospital Institutional Animal Care and Use Committee. […] Cryopreserved CD70 CAR T cells or untransduced T cells were injected intravenously via tail vein at the indicated time points. Tumor burden was monitored via bioluminescence following intraperitoneal injection of D-luciferin substrate solution. AMI spectral imaging was used to perform the image capture and IDL software v. 4.3.1 was used for analysis. Animals were euthanized per the experimental protocol or when they met a priori defined endpoints by IACUC.\nA complementary technique was used to verify tumor burden and CAR-T cell expansion. […] To determine if these were cancer cells or infiltrating CAR-T cells, human CD3 was stained."}, "[5]": {"system": "OCI-AML3 and Molm13 AML lines", "test": "CD70 surface expression after incubation with AZA (flow cytometry), AML lines", "assay_type": "cell-based, human", "source_text": "(§1) The following antibody clones targeting their respective antigens were used for flow cytometric analysis where indicated: CD70 (113-16, Biolegend), PeCy7 isotype (MOPC-21, Biolegend), CD69 (FN50, Biolegend), CD107a (H4A3, Biolegend), mouse TER-119 (TER-119, Biolegend), mouse NK-1.1 (PK136, Biolegend), mouse Ly-6G/Ly-6C (Gr-1, Biolegend), mouse CD11b (Biolegend). In general, cells were stained for fifteen minutes in the dark at 4 degrees Celsius and washed in PBS with 2% FBS. When used, DAPI was added to establish live versus dead separation. Trucount tubes (BD Biosciences, 340334) were used for murine blood CAR quantification according to kit instructions. Quantum Simply Cellular beads (Bangs Laboratories, 815) were used to quantify CD70 surface expression."}, "[6]": {"system": "Molm13", "test": "Real-time cytotoxicity assay (impedance) after AZA incubation of CAR-T cells", "assay_type": "cell-based, human", "conditions": "CAR-T cells treated in 1 μM AZA, after 96 hours", "experimental": "Cell index was recorded as a measure of impedance using the xCELLigence RTCA SP instrument (ACEA biosciences). […] 125,000 Molm13 cells per well were then plated for 28 hours followed by administration of 125,000 CAR-T cells. Cell index was tracked for 96 hours."}, "[7]": {"system": "Molm13", "test": "CD70 and CD33 expression on AML in vivo after AZA (femur aspirates, flow cytometry)", "set-up": "species or system NSG mice", "conditions": "five days of AZA IP", "source_text": "as §1\n4.3.1 was used for analysis.\nFemur aspirates were analyzed for tumor cells and their CD70 expression via flow cytometry (FIG. 4C). CD70 expression level was compared to isotype controls for each mouse."}, "[8]": {"system": "CD70 CAR-T cells", "test": "AZA exposure of CD70 CAR-T cells: cell number and viability", "assay_type": "cell-based, human", "conditions": "increasing concentrations of AZA, 24 hours, IL-2"}},
  "data": [
    {"smiles": "Nc1ncn([C@@H]2O[C@H](CO)[C@@H](O)[C@H]2O)c(=O)n1", "note": "[AZA, azacitidine]", "values": [
      {"measurement": "CAR-T cell activation (CD69) compared to control", "setting": "[1]", "value": "significant reduction in activation"},
      {"measurement": "PD-1", "setting": "[2]", "value": "decreases"},
      {"measurement": "Tim 3", "setting": "[2]", "value": "decreases"},
      {"measurement": "effector memory phenotypes", "setting": "[2]", "value": "increase in effector memory phenotypes"},
      {"measurement": "CD70 surface expression", "setting": "[3]", "value": "increased CD70 surface expression"},
      {"measurement": "treatment effect / tumor control (BLI)", "setting": "[4]; AZA 2.5 mg/kg/day IP day +18 for 5 days, T cells day +22", "value": "slight treatment effect"},
      {"measurement": "human CD45 staining of bones (immunohistochemistry)", "setting": "[4]; femurs at sacrifice", "value": "abundant human CD45 staining"},
      {"measurement": "CD70 expression", "setting": "[5]; 10 μM AZA, FIG. 15, cell line not named", "value": "bulk increase in CD70 expression"},
      {"measurement": "CD70 expression", "setting": "[5]; incubated with AZA for 20 and 44 hours", "value": "increase in CD70 expression at higher concentrations"},
      {"measurement": "CAR-T cytotoxicity vs control", "setting": "[6]", "value": "no statistically significant difference from control"},
      {"measurement": "increase in myeloid marker CD33", "setting": "[7]", "value": "not observed"},
      {"measurement": "number of CAR-T cells surviving", "setting": "[8]", "value": "same number of CAR-T cells survived"},
      {"measurement": "viability of CAR-T cells", "setting": "[8]", "value": "preserved across all conditions"}
    ]}
  ]
}
